The text below walks through data of ChEMBL document CHEMBL1141672, “Novel bradykinin-1 antagonists containing a (1,2,3,4-tetrahydro-isoquinolin-1-yl)acetic acid scaffold” (Eur J Med Chem, 2008).

Assay [1] addresses T1, B1 bradykinin receptor (Homo sapiens) (UniProt P46663).
T1 sequence (whole entry): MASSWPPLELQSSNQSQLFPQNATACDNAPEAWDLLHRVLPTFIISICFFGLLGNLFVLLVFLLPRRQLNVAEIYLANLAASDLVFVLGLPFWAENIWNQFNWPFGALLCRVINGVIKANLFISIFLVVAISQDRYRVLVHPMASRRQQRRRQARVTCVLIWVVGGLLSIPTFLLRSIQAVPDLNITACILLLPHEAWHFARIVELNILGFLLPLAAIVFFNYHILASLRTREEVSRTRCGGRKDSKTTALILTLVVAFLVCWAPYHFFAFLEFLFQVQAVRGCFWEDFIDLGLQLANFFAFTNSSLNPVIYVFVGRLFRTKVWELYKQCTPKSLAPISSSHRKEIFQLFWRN
Briefly: Antagonist activity against human recombinant bradykinin B1 receptor expressed in CHO cells assessed as inhibition of [Lys-des-Arg9]bradykinin-induced cytoplasmic calcium release at 5 uM by fluorimetry. It counts as functional, cell-based.

The target of the next assay is T2, B1 bradykinin receptor (Homo sapiens, UniProt P46663).
T2 sequence (P46663 whole entry): T1 sequence (whole entry)
Briefly: Displacement of [3H]Lys-bradykinin from human recombinant bradykinin B1 receptor expressed in CHO cells by scintillation counting. It counts as cell-based. (In general: Displacement assays read how much labelled ligand stays bound in the presence of the test substance.)

The structures appear in SMILES notation.

Usually inhibition stands for the change of the read-out against control, counted positive when it falls. The term Ki denotes a measure of affinity in units of concentration, obtained from inhibition or displacement.

With `Cc1ccc(S(=O)(=O)N2CCc3ccccc3C2CC(=O)NCCCCCCN)cc1` (racemic), the inhibition in assay [1] came out at 16.3%.
Consider `COc1cc2c(cc1OC)C(CC(=O)NCCCCNC(=N)N)N(S(=O)(=O)c1ccc(C)cc1)CC2` (racemic), for which, in assay [1], the inhibition worked out at 19%.
In the case of `Cc1ccc(S(=O)(=O)N2CCc3ccccc3C2CC(=O)NCCCCN)cc1` (racemic), the inhibition in assay [1] was determined as 15.9%.
As to `COc1cc2c(cc1OC)C(CC(=O)NCCCCCCN)N(S(=O)(=O)c1ccc(C)cc1)CC2` (racemic), the inhibition in assay [1] was determined as 10.9%.
Turning to `COc1cc2c(cc1OC)C(CC(=O)NC1CCCCCC1)N(S(=O)(=O)c1ccc(C)cc1)CC2` (racemic), the inhibition in assay [1] came to 9.3%.
With `Cc1ccc(S(=O)(=O)N2CCc3ccccc3C2CC(=O)NCCc2ccc(C3=NCCN3)cc2)cc1` (racemic), the inhibition in assay [1] was 99%. In addition, on B1 bradykinin receptor, the Ki amounted to 67 nM.
For `Cc1ccc(S(=O)(=O)N2CCc3ccccc3C2CC(=O)NC2CCCCCC2)cc1` (racemic), the inhibition in assay [1] is 37%.
Turning to `Cc1ccc(S(=O)(=O)N2CCc3ccccc3C2CC(=O)NCCCCNC(=N)N)cc1` (racemic), the inhibition in assay [1] is 44.9%.
With `COc1cc2c(cc1OC)C(CC(=O)NCCCCN)N(S(=O)(=O)c1ccc(C)cc1)CC2` (racemic), the inhibition in assay [1] is 15.3%.
On to `COc1cc2c(cc1OC)C(CC(=O)NCCc1ccc(C3=NCCN3)cc1)N(S(=O)(=O)c1ccc(C)cc1)CC2` (racemic), for which the inhibition in assay [1] stood at 85.7%. Further, the Ki at B1 bradykinin receptor came out at 2000 nM.
